“Also recorded” adds a separate entry of the source. Positions of bridges follow the written chain, without caps; N, C: chain ends. No end group written: not given here.
Tests used:
[1] = test system: Chung model rats; experiment: Chung model of neuropathic pain, paw withdrawal (Example 2); assay type: in vivo, rat; conditions: 10 mg/kg orally or intramuscular; 1, 2 and 4 hours post-dosing; n=8
Method: The peptide of SEQ ID NO:26 was administered at 10 mg/kg either orally (PQ) or by intramuscular (IM) injection to Chung model rats and pain was assessed by paw withdrawal. Pre-dosing control; Vehicle: 5% DMSO in PBS. *** p<0.001, compared to the same time points in the Vehicle control group; #p<0.05, compared to SEQ ID NO:26 PO group at the same time point. n=8 for each group.
An […] Chung model of chronic nerve constriction in rats (Chung et al., Methods Mol. Med. 2004; 99:35-45) was used to assess the effect of SEQ ID NO:26 on neuropathic pain. SEQ ID NO:26 was administered at 10 mg/kg either orally or by intramuscular injection to Chung model rats and pain was assessed by paw withdrawal.

[2] = test system: Lamina I or II neurons in the dorsal horn; experiment: whole-cell patch clamp recording in spinal cord slices with intact dorsal root afferents from Chung models (Example 1); assay type: cell-based, rat
Method: An in vitro spinal cord slice with intact dorsal root afferents combined with single-cell whole-cell patch claim electrophysiological recording techniques was used to assess the electrophysiological properties of SEQ ID NO:26 (SCRSRPVESSC; also referred to herein as LAT9993).
Spinal cord slices were prepared from models of neuropathic pain (Chung models; as previously described in Chung et al., Methods Mol Med. 2004; 99:35-45, the contents of which are incorporated herein by reference) and tested against the peptide of SEQ ID NO:26. Chung model rats, aged 8 to 12 weeks, were housed in an air-conditioned room on a 12 hour light/dark cycle with food and water available ad libitum. The rats were terminally anaesthetized using isofluorane and decapitated. […]
Whole-cell recordings were performed at 34-35° C. from Lamina I or II neurons in the dorsal horm of the spinal cord slices using Axopatch 1D and/or Multiclamp 700B amplifies and using the “blind” version of the patch-clamp technique. […] Biocytin was included in the patch solution to allow post-recording identification of the recorded neurons. The peptide of SEQ ID NO:26 was applied to the recorded tissue in the tissue bath at concentrations between 0.5 μM and 5 μM.

SCRSRPVESSC (disulfide 2-11 (inferred); listed as Homo sapiens) [SEQ ID NO:26, cyclic peptide of formula (I) formed by a disulphide bond between the two cysteine residues]
pain as measured by paw withdrawal threshold (PWT) [1]: significantly reduced pain
neuronal input resistance (effect in words) ([2]; 1 μM (FIG. 2), bath applied): reduction in neuronal input resistance; also recorded: reversible on washout
excitatory postsynaptic potentials (EPSPs) ([2]; 5 μM (FIG. 3), 0.1 Hz, 1 Hz): suppressed
